Test results from US20240092835A1, “NOVEL PEPTIDES CAPABLE OF ALTERING NK CELL ACTIVITY” (Massachusetts Institute of Technology, priority 2022, published 2024).

Experiments:
NKG2A−/NKG2C− NK cells = test: NK cell activation markers in control NKG2A-/NKG2C- NK cells incubated with peptide and K562 expressing HLA-E; type: cell-based, human
How it was run: (§1)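 Human myelogenous leukemia K562 cells displaying HLA-E carry the test peptides (human or HCMV origin) and are presented to NK cells; surface activation markers are scored by percent positive cells.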

HLA-E = target: T1, HLA-E (Homo sapiens, UniProt P13747); test: HLA-E surface stabilization assay with RMA-S/HLA-E cells; type: cell-based; details: 30 μM peptide, 16 hours; for HLA-E surface expression stability (GeoMFI): anti-HLA-E antibody
T1 construct: expressed in transfected cells; host or cells: RMA-S/HLA-E cells (antigen processing-defective lymphoma cell line)
Description: HLA-E surface expression was assessed by measuring geometric mean fluorescence intensity (GeoMFI) in RMA-S cells following immunofluorescence staining with an anti-HLA-E antibody (Table 14). Increased GeoMFI was indicative of increased HLA-E surface expression stability following novel peptide exposures (FIG. 3).

NKG2A+/NKG2C− NK cells = test: NK cell activation markers in NKG2A+/NKG2C- NK cells incubated with peptide and K562 expressing HLA-E (inhibition); type: cell-based, human; details: for percentage of CCL3+ NK cells / percentage of CD107a+ NK cells / percentage of IFNG+ NK cells / percentage of TNF+ NK cells: NKG2A+/NKG2C- NK cells, K562/HLA-E
How it was run: as §1

NKG2A−/NKG2C+ NK cells = test: NK cell activation markers in NKG2A-/NKG2C+ NK cells incubated with peptide and K562 expressing HLA-E (activation); type: cell-based, human; details: for percentage of CCL3+ NK cells / percentage of CD107+ NK cells / percentage of IFNG+ NK cells / percentage of TNF+ NK cells: NKG2A-/NKG2C+ NK cells, K562/HLA-E
How it was run: as §1

[1] = K562 expressing HLA-E, CD107a, IFNG, TNF, CCL3

T1 sequence (P13747 22-358): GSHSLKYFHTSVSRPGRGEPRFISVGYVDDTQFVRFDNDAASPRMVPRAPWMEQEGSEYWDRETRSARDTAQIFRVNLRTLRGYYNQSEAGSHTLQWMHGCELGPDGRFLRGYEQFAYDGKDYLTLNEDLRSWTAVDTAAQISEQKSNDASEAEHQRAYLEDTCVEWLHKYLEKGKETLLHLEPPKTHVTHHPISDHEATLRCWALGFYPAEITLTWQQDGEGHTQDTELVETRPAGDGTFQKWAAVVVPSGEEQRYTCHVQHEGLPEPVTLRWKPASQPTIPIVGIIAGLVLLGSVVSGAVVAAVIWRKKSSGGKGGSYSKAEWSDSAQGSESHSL
T1 sequence (P61769 21-119 partner): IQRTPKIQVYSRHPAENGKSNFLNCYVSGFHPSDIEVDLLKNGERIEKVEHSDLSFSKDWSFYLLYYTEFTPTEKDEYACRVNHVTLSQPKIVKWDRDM

For “ILTDRSLWL [human4, peptide FBXO41 670-678 derived from the human proteome]”, the “percentage CCL3+ NK cells” value (NKG2A−/NKG2C− NK cells; Trial 1) was 37.2%, the “percentage CD107+ NK cells” value (NKG2A−/NKG2C− NK cells; Trial 1) was 27.2% and the “percentage TNF+ NK cells” value (NKG2A−/NKG2C− NK cells; Trial 1) was 3.99%. For the same sequence, the “percentage of IFNG+ NK cells” value (NKG2A−/NKG2C− NK cells; Trial 1) was 15.4%, the “percentage CCL3+ NK cells” value (NKG2A−/NKG2C− NK cells; Trial 2) was 56.3% and the “percentage CD107+ NK cells” value (NKG2A−/NKG2C− NK cells; Trial 2) was 33.5%. For the same sequence, the “percentage TNF+ NK cells” value (NKG2A−/NKG2C− NK cells; Trial 2) was 7.5%, the “percentage of IFNG+ NK cells” value (NKG2A−/NKG2C− NK cells; Trial 2) was 20.8% and the “percentage CCL3+ NK cells” value (NKG2A−/NKG2C− NK cells; Trial 3) was 48.3%. The “percentage CD107+ NK cells” value (NKG2A−/NKG2C− NK cells; Trial 3) was 44%, the “percentage TNF+ NK cells” value (NKG2A−/NKG2C− NK cells; Trial 3) was 13.8% and the “percentage of IFNG+ NK cells” value (NKG2A−/NKG2C− NK cells; Trial 3) was 33.7%. The “percentage CCL3+ NK cells” value (NKG2A−/NKG2C− NK cells; Trial 4) was 35.9%, the “percentage CD107+ NK cells” value (NKG2A−/NKG2C− NK cells; Trial 4) was 32.1% and the “percentage TNF+ NK cells” value (NKG2A−/NKG2C− NK cells; Trial 4) was 10.2%. The “percentage of IFNG+ NK cells” value (NKG2A−/NKG2C− NK cells; Trial 4) was 19.3%, the “percentage CCL3+ NK cells” value (NKG2A−/NKG2C− NK cells; Trial 5) was 25% and the “percentage CD107+ NK cells” value (NKG2A−/NKG2C− NK cells; Trial 5) was 19.2%. For the same sequence, the “percentage TNF+ NK cells” value (NKG2A−/NKG2C− NK cells; Trial 5) was 5.02%, the “percentage of IFNG+ NK cells” value (NKG2A−/NKG2C− NK cells; Trial 5) was 13.7% and the “percentage CCL3+ NK cells” value (NKG2A−/NKG2C− NK cells; Trial 6) was 25.1%. The “percentage CD107+ NK cells” value (NKG2A−/NKG2C− NK cells; Trial 6) was 22.6%, the “percentage TNF+ NK cells” value (NKG2A−/NKG2C− NK cells; Trial 6) was 5.37% and the “percentage of IFNG+ NK cells” value (NKG2A−/NKG2C− NK cells; Trial 6) was 12.1%. For the same sequence, the “HLA-E surface expression stability (GeoMFI)” value (HLA-E; Trial 1) was 1174 GeoMFI, the “HLA-E surface expression stability (GeoMFI)” value (HLA-E; Trial 2) was 921 GeoMFI and the “HLA-E surface expression stability (GeoMFI)” value (HLA-E; Trial 3) was 887 GeoMFI. The “HLA-E surface expression stability (GeoMFI)” value (HLA-E; Trial 4) was 1378 GeoMFI, the “HLA-E surface expression stabilization strength, approximate GeoMFI” value (HLA-E; approximate value) was “approximately 1×10^3 GeoMFI” and the “effect on NKG2A+/NKG2C− NK cell inhibition (in words)” value (NKG2A+/NKG2C− NK cells; [1]) was “mild inhibitory effects”. The “percentage of CCL3+ NK cells” value (NKG2A+/NKG2C− NK cells; Trial 1) was 35.5%, the “percentage of CD107a+ NK cells” value (NKG2A+/NKG2C− NK cells; Trial 1) was 16.9% and the “percentage of IFNG+ NK cells” value (NKG2A+/NKG2C− NK cells; Trial 1) was 5.47%. The “percentage of TNF+ NK cells” value (NKG2A+/NKG2C− NK cells; Trial 1) was 1.97%, the “percentage of CCL3+ NK cells” value (NKG2A+/NKG2C− NK cells; Trial 2) was 56.4% and the “percentage of CD107a+ NK cells” value (NKG2A+/NKG2C− NK cells; Trial 2) was 23.7%. The “percentage of IFNG+ NK cells” value (NKG2A+/NKG2C− NK cells; Trial 2) was 8.81%, the “percentage of TNF+ NK cells” value (NKG2A+/NKG2C− NK cells; Trial 2) was 4.06% and the “percentage of CCL3+ NK cells” value (NKG2A+/NKG2C− NK cells; Trial 3) was 34.7%. For the same sequence, the “percentage of CD107a+ NK cells” value (NKG2A+/NKG2C− NK cells; Trial 3) was 22%, the “percentage of IFNG+ NK cells” value (NKG2A+/NKG2C− NK cells; Trial 3) was 13.3% and the “percentage of TNF+ NK cells” value (NKG2A+/NKG2C− NK cells; Trial 3) was 7.29%. The “percentage of CCL3+ NK cells” value (NKG2A+/NKG2C− NK cells; Trial 4) was 16.1%, the “percentage of CD107a+ NK cells” value (NKG2A+/NKG2C− NK cells; Trial 4) was 15% and the “percentage of IFNG+ NK cells” value (NKG2A+/NKG2C− NK cells; Trial 4) was 3.31%. For the same sequence, the “percentage of TNF+ NK cells” value (NKG2A+/NKG2C− NK cells; Trial 4) was 2.82%, the “percentage of CCL3+ NK cells” value (NKG2A+/NKG2C− NK cells; Trial 5) was 32.7% and the “percentage of CD107a+ NK cells” value (NKG2A+/NKG2C− NK cells; Trial 5) was 14.8%. The “percentage of IFNG+ NK cells” value (NKG2A+/NKG2C− NK cells; Trial 5) was 6.82%, the “percentage of TNF+ NK cells” value (NKG2A+/NKG2C− NK cells; Trial 5) was 3.39% and the “percentage of CCL3+ NK cells” value (NKG2A+/NKG2C− NK cells; Trial 6) was 13.4%. For the same sequence, the “percentage of CD107a+ NK cells” value (NKG2A+/NKG2C− NK cells; Trial 6) was 12.8%, the “percentage of IFNG+ NK cells” value (NKG2A+/NKG2C− NK cells; Trial 6) was 3.02% and the “percentage of TNF+ NK cells” value (NKG2A+/NKG2C− NK cells; Trial 6) was 2.79%. For the same sequence, the “effect on NKG2A−/NKG2C+ NK cell activation (in words)” value (NKG2A−/NKG2C+ NK cells; [1]) was “strong activating effects”, the “percentage of CCL3+ NK cells” value (NKG2A−/NKG2C+ NK cells; Trial 1) was 77.9% and the “percentage of CD107+ NK cells” value (NKG2A−/NKG2C+ NK cells; Trial 1) was 76.7%. The “percentage of IFNG+ NK cells” value (NKG2A−/NKG2C+ NK cells; Trial 1) was 62.2%, the “percentage of TNF+ NK cells” value (NKG2A−/NKG2C+ NK cells; Trial 1) was 49.6% and the “percentage of CCL3+ NK cells” value (NKG2A−/NKG2C+ NK cells; Trial 2) was 87.9%. For the same sequence, the “percentage of CD107+ NK cells” value (NKG2A−/NKG2C+ NK cells; Trial 2) was 79.5%, the “percentage of IFNG+ NK cells” value (NKG2A−/NKG2C+ NK cells; Trial 2) was 70.5% and the “percentage of TNF+ NK cells” value (NKG2A−/NKG2C+ NK cells; Trial 2) was 57.3%. The “percentage of CCL3+ NK cells” value (NKG2A−/NKG2C+ NK cells; Trial 3) was 84.4%, the “percentage of CD107+ NK cells” value (NKG2A−/NKG2C+ NK cells; Trial 3) was 84.8% and the “percentage of IFNG+ NK cells” value (NKG2A−/NKG2C+ NK cells; Trial 3) was 75.9%. The “percentage of TNF+ NK cells” value (NKG2A−/NKG2C+ NK cells; Trial 3) was 65.5%, the “percentage of CCL3+ NK cells” value (NKG2A−/NKG2C+ NK cells; Trial 4) was 74% and the “percentage of CD107+ NK cells” value (NKG2A−/NKG2C+ NK cells; Trial 4) was 73.4%. For the same sequence, the “percentage of IFNG+ NK cells” value (NKG2A−/NKG2C+ NK cells; Trial 4) was 66.6%, the “percentage of TNF+ NK cells” value (NKG2A−/NKG2C+ NK cells; Trial 4) was 57.4% and the “percentage of CCL3+ NK cells” value (NKG2A−/NKG2C+ NK cells; Trial 5) was 81.2%. The “percentage of CD107+ NK cells” value (NKG2A−/NKG2C+ NK cells; Trial 5) was 77.9%, the “percentage of IFNG+ NK cells” value (NKG2A−/NKG2C+ NK cells; Trial 5) was 70.4% and the “percentage of TNF+ NK cells” value (NKG2A−/NKG2C+ NK cells; Trial 5) was 64.7%. The “percentage of CCL3+ NK cells” value (NKG2A−/NKG2C+ NK cells; Trial 6) was 64.6%, the “percentage of CD107+ NK cells” value (NKG2A−/NKG2C+ NK cells; Trial 6) was 64.2% and the “percentage of IFNG+ NK cells” value (NKG2A−/NKG2C+ NK cells; Trial 6) was 54%. For the same sequence, the “percentage of TNF+ NK cells” value (NKG2A−/NKG2C+ NK cells; Trial 6) was 43%.
